Molecules are shown by their SMILES.

The text below walks through data of patent US7812022B2 (GlaxoSmithKline LLC, priority 2004, dated 2010).

The target in assay [1] is T1, ErbB2 or EGFR.
T1 construct: enzymes purified from a baculovirus expression system; Reagent production was conducted essentially as described in Brignola, P. S., et al, (2002) J. Biol. Chem. 277(2): 1576-1585
The assay is described as follows: ErbB family substrate phosphorylation enzyme assay (HTRF), Method A or Method B. In kind it is biochemical. The method, then:
Compounds of the present invention were tested for EGFR, ErbB-2, and ErbB-4 protein tyrosine kinase inhibitory activity in substrate phosphorylation assays using enzymes purified from a baculovirus expression system. Reagent production was conducted essentially as described in Brignola, P. S., et al, (2002) J. Biol. Chem. 277(2): 1576-1585.
The method measures the ability of the isolated enzyme to catalyse the transfer of the gamma-phosphate from ATP onto the tyrosine residue of a biotinylated synthetic peptide referenced “Peptide C” in Brignola, P. S., et al, (2002) J. Biol. Chem. 277(2):1576-1585. The extent of tyrosine phosphorylation was measured using an anti-phosphotyrosine antibody, and quantified by homogenous time-resolved fluorescence (HTRF).
Reactions were performed in black 384-well polystyrene flat-bottom plates in a final volume of 20 ul. Assays were performed by adding 10 μl of each of the following solutions, substrate Mix and enzyme mix: The Substrate mix contained 100 mM 3-[N-morpholino]propanesulfonic acid (MOPS) (pH 7.5), 2 mM MnCl2, 20 μM ATP, 0.01% Tween-20, 0.1 mg/mL (BSA), 0.8 uM peptide substrate, and 1 mM dithiothreitol. The enzyme mix contained 100 mM MOPS (pH7.5); 0.01% Tween-20; 0.1 mg/mL BSA, and either 0.8 nM EGFR, 10 nM ErbB2, or 1 nM ErbB4
During the course of these studies, two separate methods have been used to measure the potency of compounds. In Method A, the substrate mix was added to the compound plates first, then the reaction was started by adding the enzyme mix. In Method B, the enzyme mix was added to the compound plates and the plates were incubated at 20° C. for 1 hour. The reactions were then started by adding the substrate mix.
After initiating the reaction with either method describe above, the reactions were allowed to proceed for 90 minutes at 20° C. The reactions were then terminated by the addition of 20 μl 100 mM EDTA to each well. 40 μl/well of HTRF detection mix were added to the assay plates. The final concentrations of the detection reagents were: 100 mM HEPES (pH7.5), 0.1 mg/mL BSA, 15 nM streptavidin-labeled allophycocyanin (PerkinElmer), and 1 nM europium-labeled anti-phosphotyrosine antibody (PerkinElmer). Assay plates were left unsealed and were counted in a Wallac Multilabel Counter 1420 (PerkinElmer).
Compounds under analysis were dissolved in Me2SO to 1.0 mM and serially diluted 1 to 3 with Me2SO through twelve dilutions. 1 μl of each concentration was transferred to the corresponding well of an assay plate. This creates a final compound concentration range from 0.00027 to 47.6 μM.
The data for dose responses were plotted as % Inhibition calculated with the data reduction formula 100*(1−(U1−C2)/(C1−C2)) versus concentration of compound where U is the unknown value, C1 is the average control value obtained for 4.76% DMSO, and C2 is the average control value obtained for 0.035 M EDTA. Data were fitted with a curve described by: y=((Vmax*x)/(K+x))+Y^2 where Vmax is the upper asymptote, Y2 is the Y intercept, and K is the IC50. The results for each compound were recorded as pIC50s, calculated as follows: pIC50=−Log 10(K)

In assay [2] the test system is BT474 and HN5 tumor cell lines. As to the kind of experiment: Methylene blue growth inhibition assay (cellular Method A). In kind it is cell-based, Human. The settings on record: Homo sapiens, BT-474, 72 h, 3 days, read-out: Activity (Method): growth inhibition IC50 class. The protocol: Human breast (BT474) and head and neck (HN5) were cultured in low glucose DMEM (Life Technologies 12320-032) containing 10% fetal bovine serum (FBS). Human colon tumor cells (Colo205) were cultured in DMEM (Invitrogen, 10564) containing 10% FBS. The SV40 transformed human mammary epithelial cell line HB4a was transfected with either human H-ras cDNA (HB4a r4.2) or the human c-ErbB2 cDNA (HB4a c5.2). The HB4a clones were cultured in RPMI containing 10% FBS, insulin (5 g/mL), hydrocortisone (5 g/mL), supplemented with the selection agent hygromycin B (50 g/mL). All lines were grown in a humidified incubator at 37° C. in 95% air, 5% CO2. Cells were harvested using trypsin/EDTA, counted using a haemocytometer, and plated in 100 microliters of the appropriate media, at the following densities, in a 96-well tissue culture plate (Falcon 3075): BT474 10,000 cells/well, HN5 3,000 cells/well. The next day, compounds were diluted in DMEM containing […] gentamicin, at twice the final required concentration, from 10 mM stock solutions in DMSO. 100 microliters/well of these dilutions were added to the 100 microliters of media currently on the cell plates. Medium containing 0.6% DMSO was added to control wells. Compounds diluted in DMEM were added to all cell lines. The final concentration of DMSO in all wells was 0.3%. Cells were returned to the incubator (37° C., 10% CO2) for 3 days. Medium was then removed by aspiration. Cell biomass was estimated by staining cells with 90 microliters per well methylene blue (Sigma M9140, 0.5% in 1:1 ethanol:water), and incubation at rt for at least 30 minutes. Stain was removed, and the plates rinsed by immersion in deionized water and air-dried. To release stain from the cells 100 microliters of solubilization solution was added (1% N-lauroyl sarcosine, Sodium salt, Sigma L5125, in PBS), and plates were shaken gently for about 30 minutes. Optical density at 620 nm was measured on a microplate reader. Percent inhibition of cell growth was calculated relative to vehicle treated control wells. Concentration of compound that inhibits 50% of control cell growth (IC50) was interpolated using nonlinear regression (Levenberg-Marquardt) and the equation, y=Vmax*(1−(x/(K+x)))+Y2, where “K” was equal to the IC50. Method B: Celltiter Glo® Growth Inhibition Assays

Where [3] appears, read: Method B: enzyme mix pre-incubated with compound 1 hour at 20° C., started with substrate mix.
[4] abbreviates: Method A: substrate mix added first, reaction started with enzyme mix.

With `O=C(Nc1cccc(-c2nn3ccccc3c2-c2ccnc(Nc3ccc4cnccc4c3)n2)c1)c1c(F)cccc1F` [Example 65, 2,6-Difluoro-N-(3-{3-[2-(6-isoquinolinylamino)-4-pyrimidinyl]pyrazolo[1,5-a]pyridin-2-yl}phenyl)benzamide], the “Activity (Method): pIC50 class against ErbB2 or EGFR” value (from here on “Activity (Method): pIC50 class”) in assay [1] (setting [3]) is reported as “++ (B) (at least one pIC50 measurement greater than 6 against either ErbB2 or EGFR but no measurement greater than pIC50 of 7)”. In addition, in assay [2], the IC50 is more than 1 µM.

`O=C(Nc1cccc(-c2nn3ccccc3c2-c2ccnc(Nc3cccc(F)c3)n2)c1)c1ccno1` [Example 67, N-[3-(3-{2-[(3-fluorophenyl)amino]-4-pyrimidinyl}pyrazolo[1,5-a]pyridin-2-yl)phenyl]-5-isoxazolecarboxamide]: the “Activity (Method): pIC50 class” value in assay [1] (setting [3]) is recorded as “+++ (B) (at least one pIC50 measurement of greater than 7 against either ErbB2 or EGFR)”. Besides, in assay [2], the IC50 was 0.1 to 1 µM.

`O=C(Nc1cccc(-c2nn3ccccc3c2-c2ccnc(Nc3cccc(F)c3)n2)c1)c1ccsc1` [Example 81, N-[3-(3-{2-[(3-fluorophenyl)amino]-4-pyrimidinyl}pyrazolo[1,5-a]pyridin-2-yl)phenyl]-3-thiophenecarboxamide]: the “Activity (Method): pIC50 class” value in assay [1] (setting [3]) is given as “++ (B) (at least one pIC50 measurement greater than 6 against either ErbB2 or EGFR but no measurement greater than pIC50 of 7)”. Further, the IC50 in assay [2] lay within 0.1 to 1 µM.

Take `O=C(Nc1cccc(-c2nn3ccccc3c2-c2ccnc(Nc3cccc(F)c3)n2)c1)c1ccc(Cl)nc1` [Example 74, 6-Chloro-N-[3-(3-{2-[(3-fluorophenyl)amino]-4-pyrimidinyl}pyrazolo[1,5-a]pyridin-2-yl)phenyl]-3-pyridinecarboxamide]: the “Activity (Method): pIC50 class” value in assay [1] (setting [3]) is recorded as “++ (B) (at least one pIC50 measurement greater than 6 against either ErbB2 or EGFR but no measurement greater than pIC50 of 7)”. Also, in assay [2], the IC50 was 0.1 to 1 µM.

For the molecule `Nc1cccc(C(=O)Nc2cccc(-c3nn4ccccc4c3-c3ccnc(Nc4ccccc4)n3)c2)c1` [Example 143, 3-Amino-N-(3-{3-[2-(phenylamino)-4-pyrimidinyl]pyrazolo[1,5-a]pyridin-2-yl}phenyl)benzamide], the “Activity (Method): pIC50 class” value in assay [1] (setting [4]) was “+++ (A) (at least one pIC50 measurement of greater than 7 against either ErbB2 or EGFR)”. The IC50 in assay [2] is 0.1 to 1 µM.

Turning to `Cn1cccc1C(=O)Nc1cccc(-c2nn3ccccc3c2-c2ccnc(Nc3ccccc3)n2)c1` [Example 149, N-{3-[3-(2-phenylamino-4-pyrimidinyl)-pyrazolo[1,5-b]pyridin-2-yl]phenyl}-1-methyl-1H-pyrrole-2-carboxamide], the “Activity (Method): pIC50 class” value in assay [1] (setting [4]) is given as “++ (A) (at least one pIC50 measurement greater than 6 against either ErbB2 or EGFR but no measurement greater than pIC50 of 7)”. Besides, the IC50 in assay [2] lay within 0.1 to 1 µM.

On to `O=C(Nc1cccc(-c2nn3ccccc3c2-c2ccnc(Nc3ccc(Cl)c(C(F)(F)F)c3)n2)c1)c1c(F)cccc1F` [Example 89], for which the “Activity (Method): pIC50 class” value in assay [1] (setting [4]) is “++ (A) (at least one pIC50 measurement greater than 6 against either ErbB2 or EGFR but no measurement greater than pIC50 of 7)”. The IC50 in assay [2] was 0.1 to 1 µM.

Regarding `Cn1nnc2cc(C(=O)Nc3cccc(-c4nn5ccccc5c4-c4ccnc(Nc5cccc(F)c5)n4)c3)ccc21` [Example 26, N-[3-(3-{2-[(3-fluorophenyl)amino]-4-pyrimidinyl}pyrazolo[1,5-a]pyridin-2-yl)phenyl]-1-methyl-1H-1,2,3-benzotriazole-5-carboxamide], the “Activity (Method): pIC50 class” value in assay [1] (setting [3]) is given as “++ (B) (at least one pIC50 measurement greater than 6 against either ErbB2 or EGFR but no measurement greater than pIC50 of 7)”. The IC50 in assay [2] is more than 1 µM.

With `N#Cc1cc(Nc2nccc(-c3c(-c4cccc(NC(=O)c5c(F)cccc5F)c4)nn4ccccc34)n2)ccc1F` [Example 88], the “Activity (Method): pIC50 class” value in assay [1] (setting [4]) is “+++ (A) (at least one pIC50 measurement of greater than 7 against either ErbB2 or EGFR)”. Also, the IC50 in assay [2] is less than 0.1 µM.

In the case of `O=C(Nc1cccc(-c2nn3ccccc3c2-c2ccnc(Nc3cccc(F)c3)n2)c1)c1ccccc1F` [Example 12, 2-Fluoro-N-(3-{3-[2-(3-fluoro-phenylamino)-pyrimidin-4-yl]-pyrazolo[1,5-a]pyridin-2-yl}-phenyl)-benzamide], the “Activity (Method): pIC50 class” value in assay [1] (setting [3]) is given as “++ (B) (at least one pIC50 measurement greater than 6 against either ErbB2 or EGFR but no measurement greater than pIC50 of 7)”. Moreover, the IC50 in assay [2] was less than 0.1 µM.

`O=C(Nc1cccc(-c2nn3ccccc3c2-c2ccnc(Nc3ccccc3)n2)c1)c1cccnc1` [Example 138, N-{3-[3-(2-Phenylamino-pyrimidin-4-yl)-pyrazolo[1,5-a]pyridin-2-yl]-phenyl}-nicotinamide]: the “Activity (Method): pIC50 class” value in assay [1] (setting [4]) is on record as “+++ (A) (at least one pIC50 measurement of greater than 7 against either ErbB2 or EGFR)”. Besides, the IC50 in assay [2] lay within 0.1 to 1 µM.

Consider `O=C(Nc1cccc(-c2nn3ccccc3c2-c2ccnc(Nc3ccccc3)n2)c1)c1ccccn1` [Example 140], for which, in assay [1] (setting [4]), the “Activity (Method): pIC50 class” value is listed as “++ (A) (at least one pIC50 measurement greater than 6 against either ErbB2 or EGFR but no measurement greater than pIC50 of 7)”. The IC50 in assay [2] lay in the range of 0.1 to 1 µM.

Take `CN(C)CC(=O)Nc1ccc(Nc2nccc(-c3c(-c4cccc(NC(=O)c5c(F)cccc5F)c4)nn4ccccc34)n2)cc1` [Example 113, N-(3-{3-[2-({4-[(N,N-dimethylglycyl)amino]phenyl}-amino)-4-pyrimidinyl]pyrazolo[1,5-a]pyridin-2-yl}phenyl)-2,6-difluorobenzamide]: in assay [1] (setting [3]), the “Activity (Method): pIC50 class” value is on record as “+++ (B) (at least one pIC50 measurement of greater than 7 against either ErbB2 or EGFR)”. Moreover, the concentration for half-maximal inhibition (IC50) in assay [2] is less than 0.1 µM.

In the case of `O=C(Nc1cccc(-c2nn3ccccc3c2-c2ccnc(Nc3cccc(F)c3)n2)c1)c1cc(F)ccc1F` [Example 39, 2,5-Difluoro-N-[3-(3-{2-[(3-fluorophenyl)amino]-4-pyrimidinyl}pyrazolo[1,5-a]pyridin-2-yl)phenyl]benzamide], in assay [1] (setting [3]), the “Activity (Method): pIC50 class” value is “+++ (B) (at least one pIC50 measurement of greater than 7 against either ErbB2 or EGFR)”. Moreover, the 50% inhibitory concentration (IC50) in assay [2] lay in the range of 0.1 to 1 µM.
